Data set [1] deals with HeLa. Briefly: Induction of membrane-remodelling in human HeLa cells assessed as increase in cell internalization of FITC-R8 peptide at 0.5 uM incubated for 30 mins by PI staining based assay relative to control. It is filed as cell membranes.
Data set [2] concerns HeLa. In words: Induction of membrane-remodelling in human HeLa cells assessed as increase in cell internalization of FITC-R8 peptide at 1 uM incubated for 30 mins by PI staining based assay. The class given is cell membranes.
The subject of data set [3] is Lipid bilayer. Briefly: Binding affinity to POPC/POPS (3:1) LUVs assessed as stabilization of drug peptide's alpha helical signature with CD minima at around 208 and 222 nm and a positive ellipticity below 200 nm at 6.7 uM by CD spectroscopy.
Data set [4] relates to HeLa. In words: Induction of membrane-remodelling in human HeLa cells assessed as loosening of the lipid package by measuring decrease in generalized polarization of cell membrane at 0.5 uM incubated for 10 mins by di-4-ANEPPDHQ polarity-sensitive fluorescent membrane probe based confocal microscopic method. The class given is cell membranes.
Data set [5] relates to HeLa. Briefly: Induction of membrane-remodelling in human HeLa cells assessed as increase in cell internalization of FITC-R8 peptide at 0.25 uM incubated for 30 mins by PI staining based assay. The class given is cell membranes.
For data set [6], the system named is Lipid bilayer. Briefly: Induction of membrane-remodelling in DOPE bilayer assessed as phase transition temperature required for conversion of lamellar L-alpha phase to inverted hexagonal HII phase at peptide to lipid molar ratio of 1:100 by solid-state 31P NMR analysis (reference value: 25 degC).
In data set [7] the test system is HeLa. In words: Cytotoxicity against human HeLa cells assessed as proportion of cells with ruptured cell membrane at 1 uM incubated for 30 mins in presence of 10 uM FITC-R8 peptide by propidium iodide staining based assay. The note with it: 0.5 h.
The nature of data set [8]: Cytotoxicity against human HeLa cells assessed as cell viability at <=1 uM by WST8 assay. The following applies: read-out: Activity. It is filed as cell-based.

Active and inactive are the calls of the source. The calls are words filed in the database; no cut-off is given here. Starred links: 1 amine or outer side, 2 acyl side, 3 side chain; linkers in the order of their positions; H or OH if unused. Positions of bridges follow the written chain, without caps; N, C: chain ends. Non-standard residues stand in square brackets, D forms with d. Chains are numbered I, II in the order given. εLys = N[C@@H](CCCCN[*:1])C(=O)[*:2]; Nle = CCCC[C@H](N)C(=O)O

For the substance “I: H-[Nle]SSLRRQ[Nle]KNIVHNYS[εLys]GKGKG-OH / II: H-[Nle]SSLRRQ[Nle]KNIVHNYS / III: H-[Nle]SSLRRQ[Nle]KNIVHNYS (amide I:19-III:C, I:21-II:C)”, the Activity is 60% in the data set on HeLa [1] and > 10% with HeLa [7]. Also, the result in the data set on HeLa [2] was inactive. In addition, the outcome in the data set with Lipid bilayer [3], in the data set on HeLa [4] and in the data set with HeLa [5] was Active. Also, in the data set with Lipid bilayer [6], the T is 46 °C. Besides, the viability in data set [8] was > 90%.
